Test results published in US8883798B2, “Pyrimidine compounds inhibiting the formation of nitric oxide and prostaglandin E2, method of production thereof and use thereof” (Ustav Organicke Chemie a Biochemie Akademie Ved CR, V.V.I., priority 2011, dated 2014).

Legend:
[1] = system: human peripheral blood lymphocytes; assay: Chromosomal aberration test in vitro; type: cell-based; conditions: 0.1, 0.2 and 0.5 mg/ml; with and without metabolic activation
Method: The clastogenicity potential of compound no. 28 was determined using chromosomal aberration test in vitro. The test was carried out in human peripheral blood lymphocytes both with and without metabolic activation system in two separate assays.
Three concentrations were selected for the test: 0.1, 0.2 and 0.5 mg/ml of final culture. Cells were arrested at metaphase by colchicine, harvested and slides were stained. Metaphase cells were analyzed microscopically for the presence of chromosomal aberrations. A total of 200 well-spread metaphases were examined per concentration on coded slides. Concurrent positive (thiotepa, cyclophosphamide) and negative (2% DMSO) controls were included in each experiment. […].

chronic colitis in mice = assay: Chronic murine colitis induced by dextran sulfate sodium; type: in vivo, mice (Balb/c); conditions: 10 mg/kg orally, daily for 15 days
Method: Chronic colitis was induced in mice (Balb/c) by dextran sulfate sodium (DSS), used as a 3% solution in drinking water. DSS treatment was applied intermittently on the three 5-day intervals, separated by the 9-day intervals (i.e. between the DSS cycles 1/2 and 2/3) during which the mice drunk normal water.
The test compounds were given orally, suspended in 0.5% methylcellulose. The dose was 10 mg/kg. The daily dosing started immediately after the second DSS interval and lasted to the end of the 3rd DSS interval, i.e. for the duration of 15 days. At this point, the animals were sacrificed and clinical signs of colitis were examined. Except of continuous monitoring the body weight, the following parameters were evaluated: a) colon length, b) disease activity index, and c) histological grade. Three compounds were included in this experiment: nos. 19, 51, and 28. 5-Aminosalycilic acid was used as a positive reference drug. The effects were compared to the group of mice receiving placebo (0.5% methylcellulose).

[2] = Pilot toxic-kinetic study, single per-oral administration; conditions: female Wistar rats; single per-oral dose 800 mg/kg; plasma
Method: 28. The plasma samples were taken in intervals during 48 hours. […] Plasma samples were prepared by centrifugation (3500 rpm, 10 min, 4° C.), transferred into appropriately labelled and sealed Eppendorf tubes and frozen at −20° C. until transportation to analyses. The plasma was split into two aliquots. All samples were transported in a sufficient amount of dry ice to the analytical laboratory.
The analysis was performed using HPLC/MS/MS method with the use of internal deuterated standard and precipitation separation method. The analytical method used 50 μl of plasma sample for each analysis. The method was validated for concentration as low as 10.0 ng of the compound in 1 ml of plasma. A weighted liner regression was evaluated over the concentration range from 10.0-10 000.0 ng of the compound in 1 ml of plasma. Spiked plasma samples were precipitated with the solution of internal standard. The sample supernatant was analyzed on HPL/MS/MS system TSQ-03.

CCCCc1c(Cl)nc(N)nc1Cl [Substance 28]
Numerical and structural chromosome aberrations (clastogenicity) [1]: did not induce an increase in numerical and structural chromosome aberrations | Clinical signs of chronic experimental colitis (chronic colitis in mice): significantly lowers the clinical signs of chronic experimental colitis | Colon length (inflammation in the gut) (chronic colitis in mice): protection against the shortening of colon | Effectiveness compared with 5-aminosalycilic acid (chronic colitis in mice): slightly more effective than the reference drug | Overall disease activity index (chronic colitis in mice): lower than in the placebo group | Cmax = maximum concentration [2]: 337.2 ng/mL | Terminal elimination rate half-life [2]: 15.9 h
